Cc1nnc(C(C)C)n1[C@@H]1C[C@H]2CC[C@@H](C1)N2CC[C@H](NC(=O)C1CCC(F)(F)CC1)c1ccccc1
solubility (mole fraction)
Details	278.15 K	283.15 K	288.15 K	293.15 K	298.15 K	303.15 K	308.15 K	313.15 K	318.15 K	323.15 K
in DMF	3.43e-05	5.31e-05	8.04e-05	0.000117	0.000181	0.000256	0.000364	0.000535	0.000744	0.00105
in DMSO	–	–	–	5.92e-05	8.77e-05	0.000133	0.000189	0.000273	0.00038	0.000539
in ethanol	0.000264	0.00038	0.0005	0.000715	0.00099	0.00142	0.00196	0.00273	0.0036	0.00458
in n-propanol	0.00022	0.000327	0.000454	0.000645	0.000911	0.00126	0.00167	0.00222	0.00296	0.00395
in water	5.73e-06	8.2e-06	1.15e-05	1.7e-05	2.47e-05	3.5e-05	5e-05	7.13e-05	9.89e-05	0.000137

— BigSolDB 2.1
